Patent publication US20100248390A1, “COMPOSITIONS AND METHODS FOR IDENTIFYING LIGANDS OF ODORANT RECEPTORS” (DUKE UNIVERSITY, priority 2009, published 2010)
Like-named read-outs stand apart in the source and are kept apart here.

Key:
Assay in all cases: CRE-luciferase assay of odorant receptor activation (Dual-Glo, Hana3A cells, RTP1S), dose-response EC50
Assay type in all cases: cell-based
[1] = target: T1, mouse odorant receptors (ORs) (Mus musculus, UniProt P23275)
T1 construct: OR open reading frames were amplified from genomic DNA; expressed in transfected cells; host or cells: Hana3A cells, co-transfected with RTP1S, CRE-luciferase and pRL-SV40
T1 sequence (P23275 1-312): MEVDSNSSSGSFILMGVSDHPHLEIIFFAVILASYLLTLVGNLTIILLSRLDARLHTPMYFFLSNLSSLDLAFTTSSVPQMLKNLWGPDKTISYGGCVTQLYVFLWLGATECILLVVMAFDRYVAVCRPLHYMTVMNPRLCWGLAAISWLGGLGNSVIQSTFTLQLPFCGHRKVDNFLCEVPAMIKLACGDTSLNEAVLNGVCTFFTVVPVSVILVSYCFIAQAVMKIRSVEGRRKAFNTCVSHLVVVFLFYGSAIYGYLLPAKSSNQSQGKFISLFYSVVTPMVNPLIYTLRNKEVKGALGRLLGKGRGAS
Text: (§1) Cloning mouse and human ORs. […] OR open reading frames were amplified from genomic DNA using proofreading KOD DNA polymerase (Toyobo/Novagen) and subcloned into pCI expression vectors (Promega) containing the first 20 residues of human rhodopsin (Rho tag). The sequences of the cloned receptors were verified by sequencing (3100 Genetic Analyzer, ABI Biosystems). Immunocytochemistry and FACS analysis. […] For FACS analysis, phycoerythrin (PE)-conjugated anti-mouse IgG (Jackson Immunologicals) was used. In order to monitor the transfection efficiency, Green Fluorescent Protein (GFP) was co-transfected with the OR. The intensity of receptor cell surface expression was calculated as the ratio of PE and GFP expression. 7-aminoactinomycin D (Calbiochem) was added before flow cytometry to mark dead cells which were excluded from the analysis. The gate and mean of PE positive cells was normalized by GFP values. Luciferase assay. […] Odorant receptor activation leads to an increase in intracellular cAMP; CRE-luciferase (Stratagene) was used to measure this change. […] Hana3A cells were plated on poly-D-lysine-coated 96-well plates (BioCoat; Becton Dickinson). […] For each 96-well plate transfected, 1 μg of CRE-Luc, 1 μg of pRL-SV40, 5 μg of odorant receptor plasmid, and 1 μg of RTP1S was used. Approximately 24 hours post transfection, the medium was replaced with CD293 chemically defined medium (Gibco) and the plate was incubed for 30 min at 37° C. The medium was then replaced with 25 μL of odorant solution diluted in CD293 and the plate was incubated for 4 hrs at 37° C. and 5% CO2. The manufacturer's protocols for measuring luciferase and Renilla luciferase activities was followed. […] All luminescence values were divided by the Renilla Luciferase activity to control for transfection efficiency in a given well. Normalized luciferase activity was calculated using the formula (LN−Lmin)/(Lmax−Lmin), where LN is the luminescence of firefly luciferase in response to the odorant, Lmin is the minimum luciferase value on a plate or set of plates, and Lmax is the maximum luciferase value on a plate or set of plates. The data was analyzed using Microsoft Excel and GraphPad Prism 4. Screening procedure. The entire OR library was stimulated with eight separate odorant mixtures formed from 93 odorants (FIG. 12). […] A comparison between the 93 individual odorants at a 100 μM dose and a no-odor control was performed for all 290 […]. Each comparison was performed in triplicate; statistical significance was assessed by t-test (uncorrected for multiple comparisons). […] A single odorant was used on each plate to avoid cross-contamination, and each OR odorant dose was tested at least three times. The data was fit to a sigmoidal curve. […] Physicochemical descriptors. […] Receptor descriptors. […] Correlations between descriptors and responses. […] All odorants for which there were fewer than 3 responsive receptors were eliminated. For all remaining odorant pairs the Pearson correlation between EC50 vectors and the Euclidean distance between descriptor vectors was calculated. The Pearson correlation between these two sets of distances was then measured. Optimizing descriptors. […] In this method one begins with an empty set of descriptors. Each descriptor is combined with the previous set of descriptors and correlation values are computed for all of these candidate sets of descriptors. To reduce overfitting, the data is randomly divided into ten subsets and correlation values are computed for each leave-one out subset. The final correlation coefficient for each set of descriptors is the average of the correlation coefficients for each subset. The set with the best correlation coefficient then becomes the new set of descriptors and the process is repeated until the correlation coefficient increases by less than 0.004 in three consecutive iterations.

[2] = test system: mouse odorant receptors (ORs); settings: for log EC50, MOR271-1 / log EC50 (Table 4 value), MOR271-1: receptor MOR271-1
Text: as §1

[3] = target: T2, human odorant receptors (ORs) (Homo sapiens, UniProt Q9Y3N9)
T2 construct: OR open reading frames were amplified from genomic DNA; expressed in transfected cells; host or cells: Hana3A cells, co-transfected with RTP1S, CRE-luciferase and pRL-SV40
T2 sequence (Q9Y3N9 1-320): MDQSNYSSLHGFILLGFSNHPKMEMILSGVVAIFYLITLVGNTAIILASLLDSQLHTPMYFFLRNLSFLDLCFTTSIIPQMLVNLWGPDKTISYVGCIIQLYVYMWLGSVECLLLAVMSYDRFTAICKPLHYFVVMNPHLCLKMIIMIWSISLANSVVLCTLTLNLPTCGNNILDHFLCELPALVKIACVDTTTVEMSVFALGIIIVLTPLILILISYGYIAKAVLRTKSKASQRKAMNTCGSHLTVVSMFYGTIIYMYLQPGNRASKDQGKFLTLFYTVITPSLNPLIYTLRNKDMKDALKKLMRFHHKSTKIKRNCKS
Text: as §1, with “For all remaining odorant pairs the Pearson correlation between EC50 vectors and the Euclidean distance between descriptor vectors was calculated.” left out, “subset.” for “subset. The set with the best correlation coefficient then becomes the new set of descriptors and the process is repeated until the correlation coefficient increases by less than 0.004 in three consecutive iterations.”
(§2) The entire OR library was stimulated with one of 8 odorant mixtures drawn from 93 odorants chosen to represent diverse functional groups, sizes, and structures (Table 3). Each mixture was applied at five different concentrations. […] The 93 odorants were then applied individually at 100 μM to the 290 mixture-responsive ORs.

[4] = target: T3, human odorant receptors (ORs) (Homo sapiens, UniProt Q9P1Q5)
T3 construct: OR open reading frames were amplified from genomic DNA; expressed in transfected cells; host or cells: Hana3A cells, co-transfected with RTP1S, CRE-luciferase and pRL-SV40
T3 sequence (Q9P1Q5 1-309): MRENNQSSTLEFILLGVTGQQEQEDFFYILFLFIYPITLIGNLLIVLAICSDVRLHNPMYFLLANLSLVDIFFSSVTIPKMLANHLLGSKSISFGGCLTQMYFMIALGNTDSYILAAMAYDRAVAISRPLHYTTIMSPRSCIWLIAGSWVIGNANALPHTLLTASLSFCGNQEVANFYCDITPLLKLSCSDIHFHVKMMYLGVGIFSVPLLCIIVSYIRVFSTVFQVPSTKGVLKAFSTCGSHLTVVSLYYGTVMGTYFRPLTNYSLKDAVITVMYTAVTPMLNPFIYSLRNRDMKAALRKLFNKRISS
Text: as §1, with “For all remaining odorant pairs the Pearson correlation between EC50 vectors and the Euclidean distance between descriptor vectors was calculated.” left out, “subset.” for “subset. The set with the best correlation coefficient then becomes the new set of descriptors and the process is repeated until the correlation coefficient increases by less than 0.004 in three consecutive iterations.”
as §2

[5] = target: T4, human odorant receptors (ORs) (Homo sapiens, UniProt Q8WZ94); settings: receptor OR5P3; 0 = no response; read-out: log EC50, OR5P3 (converted)
T4 construct: OR open reading frames were amplified from genomic DNA; expressed in transfected cells; host or cells: Hana3A cells, co-transfected with RTP1S, CRE-luciferase and pRL-SV40
T4 sequence (Q8WZ94 1-311): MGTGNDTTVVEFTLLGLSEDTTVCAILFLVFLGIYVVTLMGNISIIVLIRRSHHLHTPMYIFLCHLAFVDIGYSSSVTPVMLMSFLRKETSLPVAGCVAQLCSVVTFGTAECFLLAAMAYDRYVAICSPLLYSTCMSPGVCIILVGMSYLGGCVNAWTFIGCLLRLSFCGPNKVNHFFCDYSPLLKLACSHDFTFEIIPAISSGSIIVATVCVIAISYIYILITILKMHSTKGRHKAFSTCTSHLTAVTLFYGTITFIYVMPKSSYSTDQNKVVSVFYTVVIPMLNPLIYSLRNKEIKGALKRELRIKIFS
Text: as §1, with “For all remaining odorant pairs the Pearson correlation between EC50 vectors and the Euclidean distance between descriptor vectors was calculated.” left out, “subset.” for “subset. The set with the best correlation coefficient then becomes the new set of descriptors and the process is repeated until the correlation coefficient increases by less than 0.004 in three consecutive iterations.”
as §2

[6] = receptor MOR41-1, 0 = no response
[7] = receptor OR2W1, 0 = no response, read-out: log EC50, OR2W1 (converted)
[8] = receptor MOR203-1, 0 = no response
[9] = receptor MOR272-1, 0 = no response
[10] = receptor OR1A1, 0 = no response, read-out: log EC50, OR1A1 (converted)

Structure (SMILES): O=C1Cc2ccccc2O1 [2-Counpronon ?]
- log EC50, MOR256-17 ([1]; receptor MOR256-17, 0 = no response): −4.575
- log EC50, MOR1-1 ([2]; receptor MOR1-1, 0 = no response): −4.138
- log EC50, MOR41-1 [2, 6]: −3.96
- log EC50, MOR139-1 ([2]; receptor MOR139-1, 0 = no response): −3.585
- log EC50, MOR258-1 ([2]; receptor MOR258-1, 0 = no response): −4.268
- log EC50, MOR259-1 ([2]; receptor MOR259-1, 0 = no response): −3.63

Structure (SMILES): CCCC(=O)C(C)=O [23-Haxanedione]
- EC50 ([1]; receptor MOR256-17, 0 = no response, read-out: log EC50, MOR256-17 (converted)): 14.5 µM
- log EC50, MOR41-1 [2, 6]: −5.008
- log EC50, MOR271-1 ([2]; 0 = no response): −4.824
- EC50 [3, 7]: 434 µM

Structure (SMILES): CCCCCC(C)=O [2-Haptonone]
- log EC50, MOR203-1 [2, 8]: −4.76
- log EC50, MOR271-1 ([2]; 0 = no response): −4.581
- log EC50, MOR272-1 [2, 9]: −5.073
- EC50 [3, 7]: 7.21 µM
- EC50 [4, 10]: 39.9 µM

Structure (SMILES): CCCCCC(=O)CC [3-Octanone]
- log EC50 (Table 4 value), MOR203-1 ([2]; receptor MOR203-1): −4.4
- log EC50 (Table 4 value), MOR271-1 [2]: −4.139
- log EC50 (Table 4 value), MOR272-1 ([2]; receptor MOR272-1): −4.197
- EC50 ([3]; receptor OR2W1, read-out: log EC50 (Table 4 value), OR2W1 (converted)): 9.55 µM
- EC50 ([4]; receptor OR1A1, read-out: log EC50 (Table 4 value), OR1A1 (converted)): 5.12 µM

Structure (SMILES): CCCCCCO [1-Hexanol]
- log EC50, MOR41-1 [2, 6]: −4.064
- EC50 [5]: 175 µM
- EC50 [3, 7]: 14.1 µM

Structure (SMILES): CCCCCCC(C)=O [2-Octanone]
- log EC50, MOR203-1 [2, 8]: −5.023
- log EC50, MOR272-1 [2, 9]: −4.575
- EC50 [3, 7]: 39.9 µM
- EC50 [4, 10]: 42.7 µM

Structure (SMILES): CCCCCCCC(C)=O [2-Noranone]
- log EC50, MOR203-1 [2, 8]: −5.064
- EC50 [3, 7]: 19.9 µM
- EC50 [4, 10]: 265 µM

Structure (SMILES): CCC(=O)C(=O)CC [34-Hexanedione]
- EC50 [1]: 12 µM
- log EC50 (Table 4 value), MOR41-1 ([2]; receptor MOR41-1): −4.692
- log EC50 (Table 4 value), MOR271-1 [2]: −4.734
- EC50 [3]: 16.6 µM

Structure (SMILES): CCCCC(=O)CC [3-Haptonone]
- log EC50, MOR203-1 [2, 8]: −4.099
- log EC50, MOR271-1 ([2]; 0 = no response): −5.235
- log EC50, MOR272-1 [2, 9]: −5.221
- EC50 [3, 7]: 33.3 µM
- EC50 [4, 10]: 19.4 µM

Structure (SMILES): O=C(c1ccccc1)c1ccccc1 [Benzophenone]
- log EC50 (Table 4 value), MOR162-1 ([2]; receptor MOR162-1): −3.685
- log EC50 (Table 4 value), MOR259-1 ([2]; receptor MOR259-1): −4.442
- log EC50 (Table 4 value), MOR269-1 ([2]; receptor MOR269-1): −3.652
- EC50 [3]: 28.8 µM
- EC50 [4]: 98.2 µM

Structure (SMILES): C=CCc1ccccc1 [Allyl benzene]
- EC50 [1]: 71.4 µM
- log EC50 (Table 4 value), MOR105-1 ([2]; receptor MOR105-1): −3.332
- log EC50 (Table 4 value), MOR106-1 ([2]; receptor MOR106-1): −3.921
